Results taken from patent publication US4622421A, “Phenylalkanoic acid derivatives and their use” (Sankyo Company Limited, priority 1983, dated 1986).
Where two headings read alike, the source gives them in different places.

Key:
[1] = test system: carrageenin-induced inflammation (hind paw oedema); test: Carrageenin oedema test for anti-inflammatory activity; format: in vivo, Male Wistar rats; conditions: po, read-out: Anti-inflammatory activity, ID50
Method: Male Wistar rats weighing 120-150 g were fasted overnight and then received a test compound per os as an aqueous tragacanth suspension. 30 minutes later, inflammation was induced by the subcutaneous injection of 0.05 ml of a 1% w/v carrageenin suspension into the plantar tissue of a hind paw of each rat [Winter et al., Proc. Soc. […] The anti-oedema activity was measured volumetrically, by assessing the response, as calculated from the following equation: Response=(V-Vo)/Vo where Vo and V represent, respectively, the paw volume immediately before and 3 hours after the carrageenin injection.

[2] = test system: pressure-induced pain threshold; test: Pain test for analgesic activity (modified Randall and Selitto, Brewers' yeast-inflamed paw); format: in vivo, Male Wistar-Imamichi rats; conditions: read-out: Analgesic activity, ED50
Method: This test was conducted according to a modification of the method reported by L. O. Randall and J. J. Selitto in Arch. Int.
Male Wistar-Imamichi rats of 4 weeks of age and weighing 60-90 g were injected with 0.1 ml of a 20% by weight suspension of Brewers' yeast in the right hind paw. […] Each of these was given orally a test compound as an aqueous tragacanth suspension. 1 and 2 hours after administration of the test compound, the pain threshold was determined by observing pain responses (such as struggling or squeaking) when the inflamed or normal paw was subjected to pressure by a machine (Ugo-Basile).

[3] = test system: IgM antibody-producing cells in the spleen; test: Test for immuno-regulatory activity (Cunningham's method, IgM antibody production to sheep erythrocytes); format: in vivo, female mice of the BALB/c strain; conditions: mouse, oral, dose from 1 to 10 mg per kg, spleen after 5 days
Method: The immuno-regulatory activity of (±)-2-[4-(cis-2-hydroxycyclohexylmethyl)phenyl]propionic acid was tested by Cunningham's method [A. J. Cunningham and A. Szenberg, Immunology 14, 599 (1968)]. The test compound was administered orally to female mice of the BALB/c strain and simultaneously sheep erythrocytes were administered intraperitonially, in order to sensitise the animal to these erythrocytes as an antigen. After 5 days, the spleen of the experimental animal was extracted and the number of IgM antibody-producingcells in the spleen cells was calculated.

[4] = rat, per os, paw volume 3 hours after carrageenin, dose inhibiting the response by 50%
[5] = rat, oral, pain threshold 1 and 2 hours after administration, Litchfield and Wilcoxon

Row | SMILES | ED50 [1, 4] [mg/kg] | ED50 [2, 5] [mg/kg] | percent inhibition of antibody production [3] [%] | ED50 ([1]; Rattus norvegicus, 3 h) [mg/kg] | ED50 ([2]; Rattus norvegicus, po) [mg/kg]
1 | CC(C(=O)O)c1ccc(C[C@@H]2CCCC[C@@H]2O)cc1 (mixture of isomers) [Compound 1, (±)-2-[4-(cis-2-hydroxycyclohexylmethyl)phenyl]propionic acid] | 3.3 | 0.86 | ≥ 50 |  | 
2 | CC(C(=O)O)c1ccc(C[C@@H]2CCCC[C@H]2O)cc1 (mixture of isomers) [Compound 2, (±)-2-[4-(trans-2-hydroxycyclohexylmethyl)phenyl]propionic acid] | 0.96 | 0.76 |  |  | 
3 | COc1ccc2c(c1)c(CC(=O)O)c(C)n2C(=O)c1ccc(Cl)cc1 [Compound 3, Indomethacin, reference compound] |  |  |  | 2.2 | 1.6
